Measured values published in patent publication US9623031B2, “Compositions, methods and kits for treating cancer” (priority 2011, dated 2017).

Tests used:
[1] = test system: residual BCR-ABL LSCs; assay: Secondary transplants from treated BCR-ABL mice (residual LSCs); format: in vivo, mouse
Description: Secondary transplants to test for residual LSCs after treatment with Δ^12-PGJ3: For the CML model, B6.SJLPtprca Pep3b/BoyJ (CD45.1^+) mice were treated with 5-FU and bone marrow cells enriched in cycling HSCs were isolated followed by infection with MIGR-BCR-ABL virus or control MSCV-GFP virus as described above. The cells were transplanted into C57BL/6 (CD45.2) recipient mice as mentioned earlier. The mice were treated with Δ^12-PGJ3 or vehicle control as indicated. Two weeks after treatment, spleen cells were isolated and transplanted into irradiated secondary C57BL/6 (CD45.2) recipients as described above. Two weeks after secondary transplant, mice were analyzed for WBC counts, splenomegaly and the presence of GFP^+ or CD45.1 donor cells in the bone marrow and spleen by flow cytometry. Secondary transplants were also done with FV infected mice treated with Δ^12-PGJ3 or vehicle control. BALB/c mice were infected with Friend virus as described above. The mice were treated with Δ^12-PGJ3 or vehicle control as indicated. Two weeks after treatment, spleen cells isolated from FV-infected mice and transplanted into BALB/c-Stk^−/− recipient mice (1×10^5 cells per mouse). Five weeks post transplant, the mice with secondary transplants were tested for WBC counts, splenomegaly and for the presence of M34^+Kit^+Sca1^+FV-LSCs by flow cytometry.

[2] = test system: blast crisis CML cells from a patient (#011711); assay: Blast crisis CML patient cells: cytospin and annexin V apoptosis; format: cell-based, human
Description: An experiment involving a cytospin of Blast crisis CML (011711) and Geimsa stain was performed. Blast crisis CML were cultured in IMDM with BIT, LDL, L-Glu and treated with PBS or 100 nM Δ^12-PGJ3 for 12 hrs. Cells were collected and slides were done by Cytospin. Cytospin slides were stained with Wright Geimsa stain and pictures (100×) were recorded on a Material microscope.
In this experiment, 110,000/well primary AML cells were cultured in above specified media for 6 and 12 hrs. Cells were collected and washed once with ice cold PBS. The cells were resuspended in 200 ul 1× Apoptosis buffer with annexin-V PE to all tubes. The cells were washed in PBS and resuspended in 600 ul PBS and transfer into flow tubes and analyzed for apoptosis (Annexin V+ cells) on FC-500. […] In this experiment, 110,000/well AML cells were cultured in earlier mentioned media for 6 and 12 hrs. Cells were collected and washed once in PBS and resuspended in 200 ul PBS and blocked with FC receptor antibody 10 mins RT. The following antibodies were added: CD38, CD123, CD34, CD117 (BD bioscience) for 1 hr on ice. Cells were washed in PBS once and resuspended in 200 ul of apoptotic buffer, and annexin V was added and incubated for 15 mins. Apoptotic cells (Annexin V+ cells) were counted by flow cytometry. […] Apoptotic cells (Annexin V+ cells) were counted by flow cytometry.

CC/C=C\C[C@H](O)C/C=C1/C(=O)C=C[C@@H]1C/C=C\CCCC(=O)O [Δ^12-PGJ3, Δ^12-prostaglandin J3]
Kit+Sca1+GFP+ LSCs in spleen of secondary recipients ([1]; donor cells from treated mice): lacked Kit^+Sca1^+GFP^+ cells
splenomegaly and WBC counts in secondary recipients ([1]; donor spleen cells from treated mice, two weeks after secondary transplant): failed to develop splenomegaly or high WBC counts
cell death, cytospin with Wright Geimsa stain ([2]; 100 nM, 12 hrs): death of blast-crisis CML cells
apoptosis (Annexin V+ cells) ([2]; 6 and 12 hrs): induces apoptosis in BC-CML primary patient cells
